# Measured values reported in publication PMC11129499, “The hepatoprotective effect of 4-phenyltetrahydroquinolines on carbon tetrachloride induced hepatotoxicity in rats through autophagy inhibition” (Biological Research, 2024).
# Columns and labels:
# [1] = test system: liver tissues; assay: In-vivo toxicity study (compounds only), liver histopathology (H&E, Masson trichrome); parameters: key to fibrosis score in liver sections (safety profile): F0 = no fibrosis; F1 = mild/moderate; F2 = significant; F3 = advanced fibrosis; F4 = cirrhosis; settings: compound only, 25 mg/kg p.o. 14 days; for fibrosis score in liver sections (safety profile): Masson trichrome, METAVIR; for lobular inflammation in liver sections (safety profile): H&E, noted less frequently in Cpd 2b
# Experimental: (§1) Rats were divided into eleven groups, with seven rats in each group. Group I, the control group, received corn oil (1 ml/kg body weight, i.p.) every 72 h for 14 days. Group II, the hepatotoxicity group, received CCl4 (1 ml/kg body weight, a 1:1 v/v mixture of CCl4 and corn oil, i.p.) every 72 h for 14 days. Groups III–VI, the treated groups, received compounds (1a, 1b, 2a, and 2b), respectively, (25 mg/kg body weight, suspended in 0.5% CMC, p.o.) every 24 h, as well as CCl4 (1 ml/kg body weight, a 1:1 v/v mixture of CCl4 and corn oil, i.p.) every 72 h for 14 days. Group VII, the positive control group, received silymarin (100 mg/kg, suspended in 0.5% CMC, p.o.) every 24 h, as well as CCl4 (1 ml/kg body weight, a 1:1 v/v mixture of CCl4 and corn oil, i.p.) every 72 h for 14 days. Groups VIII–XI, the safety profile groups, received only compounds (1a, 1b, 2a, and 2b), respectively, (25 mg/kg, suspended in 0.5% CMC, p.o.) every 24 h for 14 days.
# (§2) Rats were euthanized 24 h after the last dose of treatment with an inhaled overdose of isoflurane. Blood was extracted through a cardiac puncture, left for coagulation, and the serum was obtained by centrifugation for 10 min at 5000 rpm (GBF501, Centrifuge Cencom-II, Selecta). Livers were collected, then dissected into portions. One portion was fixed overnight in 10% buffered formalin (Adwic—El Nasr Pharmaceutical Co., Egypt) for histological examination. Another portion was homogenized, centrifuged at 10,000 rpm for 10 min, and the supernatants were collected for further investigation. Total protein content of all homogenates were determined using the Pierce™ BCA Protein Assay Kit (Catalog number: 23227, Thermo-Fisher Scientific Co., USA) following the manufacturer’s instructions. Liver tissues and homogenates were stored at − 80 °C until used.
# (§3) Serial sectioning was done on the formalin-fixed liver tissues, which were then processed into paraffin blocks. Multiple serial, 5-μm-thick sections were cut and mounted on glass slides. One section was stained by H&E stain to assess the activity, while the other was stained by Masson trichrome stain to assess fibrosis. Both activity and fibrosis were assessed using a light microscope (Olympus, CX 22LED) using the METAVIR scoring system. For activity, the number of inflammatory foci (lobular necrosis) and degree of portal inflammation (piece meal necrosis) were evaluated, and then a final histological activity score was given (A0 = none, A1 = mild, A2 = moderate, and A3 = sever). Meanwhile, fibrosis assessment was done on Masson trichrome stained sections. The fibrosis scored according to a 4-tiered system (F0 = no fibrosis, F1 = mild/moderate, F2 = significant, F3 = advanced fibrosis, and F4 = cirrhosis). Other pathologic features, such as the presence or absence of steatosis and/or apoptotic hepatocytes, were assessed if present.
# [2] = In-vivo toxicity study (compounds only), serum liver, lipid and kidney tests; settings: compound only, 25 mg/kg p.o. every 24 h for 14 days
# Experimental: (§4) Rats were divided into eleven groups, with seven rats in each group. Group I, the control group, received corn oil (1 ml/kg body weight, i.p.) every 72 h for 14 days. Group II, the hepatotoxicity group, received CCl4 (1 ml/kg body weight, a 1:1 v/v mixture of CCl4 and corn oil, i.p.) every 72 h for 14 days. Groups III–VI, the treated groups, received compounds (1a, 1b, 2a, and 2b), respectively, (25 mg/kg body weight, suspended in 0.5% CMC, p.o.) every 24 h, as well as CCl4 (1 ml/kg body weight, a 1:1 v/v mixture of CCl4 and corn oil, i.p.) every 72 h for 14 days. […]
# (§5) Rats were euthanized 24 h after the last dose of treatment with an inhaled overdose of isoflurane. […] Total protein content of all homogenates were determined using the Pierce™ BCA Protein Assay Kit (Catalog number: 23227, Thermo-Fisher Scientific Co., USA) following the manufacturer’s instructions. […]
# A variety of colorimetric serum diagnostic kits were used to assess the toxicity and hepatoprotective potential of the newly synthesized derivatives. Lipid profile parameters, including total cholesterol (TC) and triglycerides (TG), as well as kidney function tests, urea, and creatinine were measured to evaluate the toxicity profile. […]
# [3] = test system: CCl4-induced hepatotoxicity; assay: CCl4-induced hepatotoxicity model, liver histopathology (METAVIR scoring); format: in vivo, Wistar albino male rats; parameters: key to activity grade (METAVIR): A0 = none; A1 = mild; A2 = moderate; A3 = sever; key to fibrosis score (METAVIR): F0 = no fibrosis; F1 = mild/moderate; F2 = significant; F3 = advanced fibrosis; F4 = cirrhosis; settings: 14 days
# Experimental: as §1, §2, §3
# [4] = test system: Human hepatoma (HepG2) cells; assay: MTT in-vitro cytotoxicity assay on HepG2 cells; format: cell-based; settings: HepG2, 24 h treatment, 7.8125-500 μM
# Experimental: Human hepatoma (HepG2) cells were used to evaluate the in-vitro cytotoxicity of the newly synthesized compounds compared to tacrine as their structure-inspiring drug. The HepG2 cell line was obtained from ATCC. The cells were cultured in DMEM with high glucose, supplemented with 10% FBS, 100 U/ml penicillin, and 1% streptomycin were maintained in a 37 °C incubator with 5% CO2 in a humidified atmosphere. One day before the treatment, cells were seeded at a density of 1 × 10^4 cells/well in a sterile flat bottom 96-well tissue culture plate. After leaving the cells to adhere for 24 h, cells were treated with different concentrations (7.8125, 15.625, 31.25, 62.5, 125, 250, and 500 μM) of each compound as well as tacrine for 24 h in the 5% CO2 incubator.
# Thereafter, cell viability was assessed using a 3-(4,5-dimethyl-2-thiazolyl)-2,5-diphenyl-tetrazolium bromide (MTT) assay obtained from Biobasic inc (Canada). Following the 24-h treatment period, MTT was added to the wells at a final concentration of 0.5 mg/mL, and the cells were incubated for 4 h in the dark. Subsequently, the media were carefully removed from the wells, and the formed formazan crystals were dissolved by adding 100 μL of DMSO. Absorbance readings were taken using a microplate reader (BioTek, USA), and the percentage cell viability was calculated for each condition relative to the control cells treated with the same DMSO concentration.
# [5] = test system: LC3B; assay: CCl4 model, LC3B ELISA in liver homogenates; format: in vivo, Wistar albino male rats; settings: CCl4 + compound 25 mg/kg (silymarin 100 mg/kg) p.o. daily, 14 days
# Experimental: as §4, §5
# (§6) The pro-inflammatory and pro-fibrotic cytokines tumor necrosis factor alpha (TNF-α) and transforming growth factor beta (TGF-β) were evaluated in liver tissues using ELISA kits (Catalog Numbers: CSB-E11987r and CSB-E04727r, CUSABIO, USA). For further investigation of the potential mechanism of action of the synthesized compounds, the levels of autophagy-related proteins, Beclin-1 (Catalog Number: CSB-EL002658RA, CUSABIO, USA) and LC3B (Catalog No. LS-F19802, Lifespan Biosciences, USA), were quantified in liver homogenates. […]
# [6] = test system: CCl4-induced oxidative stress; assay: CCl4 model, oxidative stress markers (MDA, GSH) in liver homogenates; format: in vivo, Wistar albino male rats; settings: CCl4 + compound 25 mg/kg p.o. daily, 14 days; vs hepatotoxicity group unless stated
# Experimental: as §1, with “Groups VIII–XI, the safety profile groups, received only compounds (1a, 1b, 2a, and 2b), respectively, (25 mg/kg, suspended in 0.5% CMC, p.o.) every 24 h for 14 days.” left out
# as §5
# The level of reduced glutathione (GSH) was measured in liver tissue homogenates using a colorimetric kit for GSH (Cat.No.E-BC-K030-M, Elabscience, USA). Malondialdehyde (MDA) levels were determined as thiobarbituric acid reactive substances (TBARS) in liver homogenates according to the method of Draper and Hadley.
# [7] = test system: CCl4-induced hepatotoxicity; assay: CCl4-induced hepatotoxicity model, serum liver function tests; format: in vivo, Wistar albino male rats; settings: CCl4 1 ml/kg i.p. every 72 h + compound 25 mg/kg p.o. daily, 14 days; vs hepatotoxicity group unless stated
# Experimental: as §1, §2
# A variety of colorimetric serum diagnostic kits were used to assess the toxicity and hepatoprotective potential of the newly synthesized derivatives. Lipid profile parameters, including total cholesterol (TC) and triglycerides (TG), as well as kidney function tests, urea, and creatinine were measured to evaluate the toxicity profile. Liver function tests, including alanine transaminase (ALT), aspartate transaminase (AST), alkaline phosphatase (ALP), and total bilirubin (TBIL) were used for the assessment of both hepatotoxicity and hepatoprotective potential. All diagnostic kits were purchased from Biodiagnostics, Egypt, and were used and stored according to the manufacturer’s instructions.
# [8] = test system: tumor necrosis factor alpha (TNF-α); assay: CCl4 model, TNF-α ELISA in liver tissues; format: in vivo, Wistar albino male rats; settings: CCl4 + compound 25 mg/kg p.o. daily, 14 days; vs hepatotoxicity group unless stated
# Experimental: as §4, §5, §6
# [9] = test system: transforming growth factor beta (TGF-β); assay: CCl4 model, TGF-β ELISA in liver tissues; format: in vivo, Wistar albino male rats; settings: CCl4 + compound 25 mg/kg p.o. daily, 14 days; vs hepatotoxicity group unless stated
# Experimental: as §4, §5, §6
# [10] = test system: Beclin-1; assay: CCl4 model, Beclin-1 ELISA in liver homogenates; format: in vivo, Wistar albino male rats; settings: CCl4 + compound 25 mg/kg (silymarin 100 mg/kg) p.o. daily, 14 days
# Experimental: as §4, §5, §6
# [11] = test system: alpha-smooth muscle actin (α-SMA) positive HSCs/myofibroblasts; assay: CCl4 model, α-SMA immunohistochemistry of liver sections; format: in vivo, Wistar albino male rats; settings: CCl4 + compound 25 mg/kg p.o. daily, 14 days; vs hepatotoxicity group
# Experimental: as §1
# From paraffin-embedded blocks of liver tissues, 4- to 5-μm-thick sections were cut using a semi-automated microtome. […] They were stained by alpha-smooth muscle actin (α-SMA) primary antibody (Clone 1A4, ready-to-use, mouse monoclonal antibody, Dako) using the autostainer DAKO link 48. […] Using Image J software, activated HSCs/myofibroblasts were counted in the five high power fields. […] Only cells with well-visible nuclei were counted.
# [12] = CCl4 + compound 25 mg/kg p.o. daily
# [13] = CCl4 + compound 25 mg/kg (silymarin 100 mg/kg) p.o. daily
SMILES,fibrosis score in liver sections (safety profile) [1],total cholesterol (safety profile) [2],triglyceride levels (safety profile) [2],"fibrosis score (METAVIR) ([3]; CCl4 + compound 25 mg/kg (silymarin 100 mg/kg) p.o. daily, hepatotoxicity group F4)","steatosis and apoptotic cells in liver sections [3, 12]","activity grade (METAVIR) ([3]; CCl4 + compound 25 mg/kg p.o. daily, hepatotoxicity group A3)",IC50 [4],lobular inflammation in liver sections (safety profile) [1],"improvement of liver fibrosis / architecture, in words [3, 13]",expression of LC3B protein [5],MDA levels in liver homogenates [6],serum ALT [7],serum AST [7],"lobular and portal inflammation (activity), in words [3, 12]",TNF-α level in liver tissues [8],TGF-β level in liver tissues [9],expression of Beclin-1 protein [10],number of α-SMA positive cells / 5 HPFs [11]
"CN(C)c1ccc(-c2c3c([nH]c(=O)c2C#N)CCCC3)cc1 [Cpd 1a, 4-(4-(dimethylamino)phenyl)-1,2,5,6,7,8-hexahydro-2-oxoquinoline-3-carbonitrile]",F0,significantly lowering,significantly lowering,F3,Macrovesicular steatosis and apoptotic cells were still detected,A2,181 µM,–,–,–,–,–,–,–,–,–,–,–
"N#Cc1c(-c2ccc(O)cc2)c2c([nH]c1=O)CCCC2 [Cpd 1b, 1,2,5,6,7,8-hexahydro-4-(4-hydroxyphenyl)-2-oxoquinoline-3-carbonitrile]",F0,–,–,–,–,–,174 µM,"mild, insignificant lobular inflammation (activity grade 1)",better improvement in fibrosis score,–,–,–,–,–,–,–,–,–
"CN(C)c1ccc(-c2c(C#N)c(N)nc3c2CCCC3)cc1 [Cpd 2a, 2-Amino-4-(4-(dimethylamino)phenyl)-5,6,7,8-tetrahydroquinoline-3-carbonitrile]",F0,–,–,–,No steatosis or apoptotic cells were detected,–,171 µM,–,best protective effect on the liver sections,greater impact on inhibiting autophagy compared to the other compounds tested,"highly superior to compounds 1a, 1b and silymarin",as beneficial as silymarin,as beneficial as silymarin,improved markedly,better effect on decreasing the level of both cytokines relative to compounds 1a and 1b and silymarin,better effect on decreasing the level of both cytokines relative to compounds 1a and 1b and silymarin,greater impact on inhibiting autophagy compared to the other compounds tested,"better levels of significance, closely aligning with silymarin"
"N#Cc1c(N)nc2c(c1-c1ccc(O)cc1)CCCC2 [Cpd 2b, 2-Amino-5,6,7,8-tetrahydro-4-(4-hydroxyphenyl)quinoline-3-carbonitrile]",F0,–,–,–,–,–,169 µM,"mild, insignificant lobular inflammation (activity grade 1)",better improvement in fibrosis score,greater impact on inhibiting autophagy compared to the other compounds tested,"highly superior to compounds 1a, 1b and silymarin",as beneficial as silymarin,as beneficial as silymarin,–,better effect on decreasing the level of both cytokines relative to compounds 1a and 1b and silymarin,better effect on decreasing the level of both cytokines relative to compounds 1a and 1b and silymarin,greater impact on inhibiting autophagy compared to the other compounds tested,"better levels of significance, closely aligning with silymarin"
"Nc1c2c(nc3ccccc13)CCCC2 [tacrine, Tacrine, reference compound]",–,–,–,–,–,–,124 µM,–,–,–,–,–,–,–,–,–,–,–
